Assay results: ChEMBL document CHEMBL1201862, “PubChem BioAssay data set” (2004)
Active and inactive are the calls of the source.

Assays:
[1] = tested on: Vero; test: cells; assay type: functional; conditions: Chlorocebus sabaeus
[2] = tested on: Vero; test: cells; assay type: functional, cell-based; conditions: Chlorocebus sabaeus
[3] = Luminescent dose response cell-based high throughput screening assay for inhibitors of the Janus kinase 2 mutant JAK2V617F. [Related pubchem assays: 1446 (Primary screen.), 1521 (Confirmation assay.), 1486 (Counter screen.)]; assay type: functional
[4] = target: Solute carrier family 12 member 2/member 5 (Homo sapiens, UniProt P55011+Q9H2X9); test: KCC2 and NKCC1 inhibition by rubidium flux, cell-based, NKCC1 counter-screen (AID 1734); assay type: functional, HEK293
[5] = target: T1, Cytochrome P450 3A4 (Homo sapiens, UniProt P08684); conditions: Potency
T1 sequence (P08684 whole entry): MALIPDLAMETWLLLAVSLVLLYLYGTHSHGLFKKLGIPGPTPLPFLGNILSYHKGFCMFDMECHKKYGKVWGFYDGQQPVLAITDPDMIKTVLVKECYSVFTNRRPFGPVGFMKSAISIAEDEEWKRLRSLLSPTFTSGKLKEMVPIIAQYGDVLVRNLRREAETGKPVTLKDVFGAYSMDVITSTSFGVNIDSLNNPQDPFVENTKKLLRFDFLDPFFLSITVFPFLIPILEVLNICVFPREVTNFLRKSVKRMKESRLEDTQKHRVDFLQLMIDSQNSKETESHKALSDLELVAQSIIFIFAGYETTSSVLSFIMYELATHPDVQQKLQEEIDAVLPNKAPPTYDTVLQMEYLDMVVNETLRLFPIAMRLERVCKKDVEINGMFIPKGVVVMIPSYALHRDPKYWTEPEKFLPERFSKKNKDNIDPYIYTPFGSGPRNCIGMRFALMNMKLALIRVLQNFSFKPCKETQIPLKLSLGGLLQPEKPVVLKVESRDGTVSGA

[6] = target: Cytochrome P450 2C19 (Homo sapiens, UniProt P33261); test: qHTS Assay for Inhibitors and Substrates of Cytochrome P450 2C19. [Related pubchem assays: 410 ]; assay type: ADME; conditions: read-out: Potency
Cytochrome P450 2C19, sequence (P33261 whole entry): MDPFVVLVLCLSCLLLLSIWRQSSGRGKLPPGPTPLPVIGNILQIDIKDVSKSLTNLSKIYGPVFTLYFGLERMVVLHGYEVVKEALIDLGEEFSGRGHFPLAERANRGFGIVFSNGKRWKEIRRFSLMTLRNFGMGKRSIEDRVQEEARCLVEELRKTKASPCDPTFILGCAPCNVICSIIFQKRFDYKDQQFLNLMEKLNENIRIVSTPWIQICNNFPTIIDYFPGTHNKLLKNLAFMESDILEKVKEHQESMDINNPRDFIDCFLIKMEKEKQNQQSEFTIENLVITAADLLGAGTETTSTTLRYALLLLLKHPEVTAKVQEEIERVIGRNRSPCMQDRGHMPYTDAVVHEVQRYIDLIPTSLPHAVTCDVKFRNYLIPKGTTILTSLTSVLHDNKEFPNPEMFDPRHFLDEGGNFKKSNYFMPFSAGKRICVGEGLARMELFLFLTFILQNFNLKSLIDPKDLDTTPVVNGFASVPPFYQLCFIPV

[7] = HIV-1 Vif–A3G interaction blockers – biochemical, TR-FRET, GST-Vif 1-94, biotin-A3G peptide, dose response retest, primary screen (AID 1117319); assay type: functional;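 further: TR-FRET signal of purified GST-Vif binding a biotinylated A3G peptide; inhibitors lower the FRET signal by blocking Vif and A3G binding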
[8] = target: T2, Cytochrome P450 1A2 (Homo sapiens, UniProt P05177);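 further: PubChem cytochrome P450 panel assay, CYP1A2 panel member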
T2 sequence (P05177 whole entry): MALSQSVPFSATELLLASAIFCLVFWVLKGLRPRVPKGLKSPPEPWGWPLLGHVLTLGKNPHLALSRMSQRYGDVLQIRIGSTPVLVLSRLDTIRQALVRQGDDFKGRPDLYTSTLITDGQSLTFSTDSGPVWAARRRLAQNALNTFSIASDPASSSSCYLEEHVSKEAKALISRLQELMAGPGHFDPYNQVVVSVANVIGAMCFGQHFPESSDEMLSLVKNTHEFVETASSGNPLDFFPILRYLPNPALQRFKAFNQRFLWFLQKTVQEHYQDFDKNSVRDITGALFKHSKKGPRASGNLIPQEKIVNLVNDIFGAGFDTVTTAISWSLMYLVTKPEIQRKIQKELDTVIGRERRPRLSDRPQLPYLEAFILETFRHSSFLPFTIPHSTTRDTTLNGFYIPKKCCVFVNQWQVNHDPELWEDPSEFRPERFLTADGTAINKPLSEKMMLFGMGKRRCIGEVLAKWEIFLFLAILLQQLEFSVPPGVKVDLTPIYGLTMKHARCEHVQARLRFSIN

[9] = IC50 of Artemis nuclease activity blockers – biochemical, fluorescence intensity, dose response (AID 720701); assay type: functional;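 further: Artemis endonuclease enzyme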
[10] = target: T3, Leucine aminopeptidase (Plasmodium falciparum 3D7, UniProt Q8IL11); test: P. falciparum M17LAP inhibitors, primary screen, biochemical, fluorogenic H-Leu-NHMec substrate, 1536-well (AID 1619); assay type: functional
T3 sequence (Q8IL11 whole entry): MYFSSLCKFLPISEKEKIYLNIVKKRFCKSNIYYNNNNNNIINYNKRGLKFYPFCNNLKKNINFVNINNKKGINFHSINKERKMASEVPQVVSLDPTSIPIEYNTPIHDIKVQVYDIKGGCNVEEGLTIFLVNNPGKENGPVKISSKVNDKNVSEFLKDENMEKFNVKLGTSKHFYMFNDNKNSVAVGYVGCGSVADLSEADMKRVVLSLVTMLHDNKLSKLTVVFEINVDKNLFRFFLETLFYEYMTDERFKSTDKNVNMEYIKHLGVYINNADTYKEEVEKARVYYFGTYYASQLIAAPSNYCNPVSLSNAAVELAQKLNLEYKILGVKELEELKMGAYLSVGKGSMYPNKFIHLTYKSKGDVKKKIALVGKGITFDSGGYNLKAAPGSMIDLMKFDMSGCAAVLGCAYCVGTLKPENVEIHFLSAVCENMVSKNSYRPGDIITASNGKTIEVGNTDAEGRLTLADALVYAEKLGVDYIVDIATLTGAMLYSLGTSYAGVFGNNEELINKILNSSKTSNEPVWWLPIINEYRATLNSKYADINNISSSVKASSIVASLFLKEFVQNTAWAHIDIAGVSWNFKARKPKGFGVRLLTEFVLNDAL

[11] = target: T1, Cytochrome P450 3A4
[12] = cells; conditions: HEK293
[13] = cells; conditions: A549
[14] = cells
[15] = tested on: Vero; test: inhibition of WNV-induced cytopathic effect – cell-based, CPE readout (AID 1621); assay type: functional; conditions: Chlorocebus sabaeus

O=C(NC1C=CS(=O)(=O)C1)c1sc2ccccc2c1Cl (configuration not stated)
CC50 [1]: 23.9 µM (active) | IC50 [2]: > 25 µM (active) | IC50 [3]: 2.82 µM (active)

CC1Cc2ccccc2N1C(=O)c1ccc(N2CCCC2)c([N+](=O)[O-])c1 (configuration not stated)
IC50 [4]: 51 µM (active)

CCOC(=O)OCC1OC(c2ccccc2)C=CC1Oc1cccc(N(C)C)c1 (configuration not stated)
AC50 [5]: 3.16 µM (inconclusive) | AC50 [6]: 3.16 µM (inconclusive)

Cc1cccc(N2CCN(CC(=O)NCC3CCCCC3)CC2)c1C
IC50 [7]: > 100 µM (active)

Cc1sc(NC(=O)C2C3CCC(O3)C2C(=O)O)c(C(=O)OC(C)C)c1-c1ccc(Cl)cc1 (configuration not stated)
AC50 [8]: 22.4 µM (inconclusive) | IC50 [9]: > 20 µM (inactive) | IC50 [10]: 10.1 µM (active) | AC50 [11]: 15.8 µM (inconclusive)

Cc1cccn2c(=O)c3cc(C(=O)NCCN4CCOCC4)c(=N)n(Cc4ccc(F)cc4)c3nc12
AC50 [12]: 48.4 µM (active) | AC50 [13]: 18.3 µM (active) | AC50 [14]: 1.96 µM (active) | CC50 [1]: > 25 µM (active) | IC50 [2]: > 25 µM (active) | IC50 [15]: 25.6 µM (active)
